Source: EP0572122A2, “C-terminal modified osteogenic growth polypeptides” (YISSUM RESEARCH AND DEVELOPMENT COMPANY OF THE HEBREW …, priority 1992, dated 1993)

System: anti-OGP IgG
Test: ELISA reactivity of peptides with the anti-OGP IgG preparation
Format: binding, rabbits
Conditions: polyclonal rabbit anti-OGP IgG fraction
Method: The wells were washed with 200 µl PBS (x3). Blocking of unreacted sites on the plastic well bottom was carried out by incubation of 1% gelatine in PBS at 37°C for 1 h. Rinsing with PBS (3 x 200 µl) was followed by 2 h incubation with the anti-OGP IgG preparation (diluted 1:300 with reference to the original rabbit anti-serum) at room temperature. This was followed by rinsing with (i) 3% BSA in PBS (1 x 200 µl); (ii) 0.02% Tween 20 in PBS (1 x 200 µl); and (iii) PBS (3 x 200 µl). The wells were then incubated with 100 µl of 1:1000 dilution in PBS of goat alkaline phosphatase conjugated anti-rabbit IgG for 2 h at room temperature. Rinsing with (i) 0.02% Tween in PBS (1 x 200 µl); (ii) PBS (2 x 200 µl); (iii) bidistilled water (3 x 200 µl) preceded a 20 min incubation at room temperature with alkaline phosphatase buffer solution: p-nitrophenyl phosphate 1 mg/ml in substrate buffer (diethanolamine buffer pH 9.6). Light absorbance at 450 nm was then recorded using an ELISA reader.

binding to / reaction with anti-OGP IgG in ELISA: failed to react
Substance: parathyroid hormone (PTH) (1-34) [PTH (1-34)]
